# From publication PMC3214022, “Plasmodium falciparum Parasites Are Killed by a Transition State Analogue of Purine Nucleoside Phosphorylase in a Primate Animal Model” (PLoS ONE, 2011)
# Test: Weights, CBC, blood chemistry and signs of toxicity, Table S1 sheet PD-2 (infected Aotus, twice a day for seven days)
# Format: in vivo, Aotus lemurinus lemurinus
# Conditions: oral 10 mg/kg twice a day/7 days
# Protocol: Laboratory bred Aotus lemurinus lemurinus monkeys (0.75–0.89 kg) were maintained as described. […] Blood samples were collected before the treatment started (t = 0), 0.05 h, 0.5 h, 1 h, 2 h, 6 h, 24 h, 48 h, and 6, 12 and 18 days after the first dose from each monkey and processed as described below. Pharmacokinetic parameters were calculated using PKSolver. For efficacy studies, Aotus monkeys were inoculated intravenously with 5×10^6 parasites of the FVO strain of P. falciparum in an approved treatment protocol. […] Parasitaemia was determined by Giemsa-stained thick blood smears prepared daily from the marginal ear vein [41]. Blood samples were collected from each monkey and transferred to tubes containing lithium heparin, centrifuged and both plasma and blood cells were frozen at −80 °C until analysis. Animals received a physical examination and blood chemistry profiles were monitored after treatment as described previously. Any monkey not responding appropriately to treatment was cured of its infection with mefloquine (40 mg kg^−1). […] The day of clearance is defined as the first of three consecutive days in which the thick blood films are parasite negative. The day of recrudescence is the first of three consecutive days of positive thick blood films after a period of clearance. Suppression is defined as a transient decrease in the parasite count post-treatment without clearance.
structure (smiles),measurement,setting,value
"Nc1nc2c(CN3CC(O)C(CO)C3)c[nH]c2c(=O)[nH]1 (stereo not shown) [BCX4945, 4′-deaza-1′-aza-2′-deoxy-1′-(9-methylene)-Immucillin-G]",Mean Corpuscular Volume,"25044 Male (ITM2), day 25",86 fL
same,Mean Hemoglobin Content,"25044 Male (ITM2), day 25",32.1 g/dL
same,Mean Platelet Volume,"25044 Male (ITM2), day 25",12.7 fL
same,Monocytes (%),"25044 Male (ITM2), day 25",9.5%
same,Monocytes (x 103/ul),"25044 Male (ITM2), day 25",1.9 x 103/ul
same,Platelets,"25044 Male (ITM2), day 25",166000 µL⁻¹
same,Red Cell Distribution Width,"25044 Male (ITM2), day 25",22.2%
same,Reticulocytes,"25044 Male (ITM2), day 25",2.6%
same,WEIGHT,"25044 Male (ITM2), day 25",827 g
same,Blood Urea Nitrogen,"25044 Male (ITM2), day -10",11.3 mg/dL
same,Creatine,"25044 Male (ITM2), day -10",0.5 mg/dL
same,Erythrocytes,"25044 Male (ITM2), day -10",5.93e+06 µL⁻¹
same,Glutamate Pyruvate Transaminase,"25044 Male (ITM2), day -10",17.1 U/L
same,Granulocytes (%),"25044 Male (ITM2), day -10",13.3%
same,Granulocytes (x 103/ul),"25044 Male (ITM2), day -10",4.2 x 103/ul
same,Hematocrit,"25044 Male (ITM2), day -10",44.6%
same,Hemoglobin,"25044 Male (ITM2), day -10",15.8 g/dL
same,Leucocytes,"25044 Male (ITM2), day -10",31300 µL⁻¹
same,Lymphocytes (%),"25044 Male (ITM2), day -10",76.1%
same,Lymphocytes (x 103/ul),"25044 Male (ITM2), day -10",23.8 x 103/ul
same,Mean Corpuscular Hemoglobin,"25044 Male (ITM2), day -10",26.7 pg
same,Mean Corpuscular Volume,"25044 Male (ITM2), day -10",75.2 fL
same,Mean Hemoglobin Content,"25044 Male (ITM2), day -10",35.5 g/dL
same,Mean Platelet Volume,"25044 Male (ITM2), day -10",13.1 fL
same,Monocytes (%),"25044 Male (ITM2), day -10",10.6%
same,Monocytes (x 103/ul),"25044 Male (ITM2), day -10",3.3 x 103/ul
same,Platelets,"25044 Male (ITM2), day -10",236000 µL⁻¹
same,Red Cell Distribution Width,"25044 Male (ITM2), day -10",13%
same,Reticulocytes,"25044 Male (ITM2), day -10",1.2%
same,WEIGHT,"25044 Male (ITM2), day -10",814 g
same,Blood Urea Nitrogen,"26027 Male (ITM3), day 8",12.75 mg/dL
same,Creatine,"26027 Male (ITM3), day 8",0.5 mg/dL
same,Erythrocytes,"26027 Male (ITM3), day 8",4.51e+06 µL⁻¹
same,Glutamate Pyruvate Transaminase,"26027 Male (ITM3), day 8",28.1 U/L
same,Granulocytes (%),"26027 Male (ITM3), day 8",18.4%
same,Granulocytes (x 103/ul),"26027 Male (ITM3), day 8",2.2 x 103/ul
same,Hematocrit,"26027 Male (ITM3), day 8",36.2%
same,Hemoglobin,"26027 Male (ITM3), day 8",13.0 g/dL
same,Leucocytes,"26027 Male (ITM3), day 8",11800 µL⁻¹
same,Lymphocytes (%),"26027 Male (ITM3), day 8",70.2%
same,Lymphocytes (x 103/ul),"26027 Male (ITM3), day 8",8.3 x 103/ul
same,Mean Corpuscular Hemoglobin,"26027 Male (ITM3), day 8",28.9 pg
same,Mean Corpuscular Volume,"26027 Male (ITM3), day 8",80.2 fL
same,Mean Hemoglobin Content,"26027 Male (ITM3), day 8",36 g/dL
same,Mean Platelet Volume,"26027 Male (ITM3), day 8",11.7 fL
same,Monocytes (%),"26027 Male (ITM3), day 8",11.4%
same,Monocytes (x 103/ul),"26027 Male (ITM3), day 8",1.3 x 103/ul
same,Platelets,"26027 Male (ITM3), day 8",216000 µL⁻¹
same,Red Cell Distribution Width,"26027 Male (ITM3), day 8",11.8%
same,Reticulocytes,"26027 Male (ITM3), day 8",1.4%
same,WEIGHT,"26027 Male (ITM3), day 8",890 g
same,Blood Urea Nitrogen,"26027 Male (ITM3), day 12",12.9 mg/dL
same,Creatine,"26027 Male (ITM3), day 12",0.5 mg/dL
same,Erythrocytes,"26027 Male (ITM3), day 12",4.4e+06 µL⁻¹
same,Glutamate Pyruvate Transaminase,"26027 Male (ITM3), day 12",33.4 U/L
same,Granulocytes (%),"26027 Male (ITM3), day 12",26.5%
same,Granulocytes (x 103/ul),"26027 Male (ITM3), day 12",4.8 x 103/ul
same,Hematocrit,"26027 Male (ITM3), day 12",36.1%
same,Hemoglobin,"26027 Male (ITM3), day 12",13.1 g/dL
same,Leucocytes,"26027 Male (ITM3), day 12",18200 µL⁻¹
same,Lymphocytes (%),"26027 Male (ITM3), day 12",67.6%
same,Lymphocytes (x 103/ul),"26027 Male (ITM3), day 12",12.3 x 103/ul
same,Mean Corpuscular Hemoglobin,"26027 Male (ITM3), day 12",29.8 pg
same,Mean Corpuscular Volume,"26027 Male (ITM3), day 12",82.1 fL
same,Mean Hemoglobin Content,"26027 Male (ITM3), day 12",36.3 g/dL
same,Mean Platelet Volume,"26027 Male (ITM3), day 12",12.2 fL
same,Monocytes (%),"26027 Male (ITM3), day 12",5.9%
same,Monocytes (x 103/ul),"26027 Male (ITM3), day 12",1.1 x 103/ul
same,Platelets,"26027 Male (ITM3), day 12",339000 µL⁻¹
same,Red Cell Distribution Width,"26027 Male (ITM3), day 12",12.1%
same,Reticulocytes,"26027 Male (ITM3), day 12",2.6%
same,WEIGHT,"26027 Male (ITM3), day 12",890 g
same,Blood Urea Nitrogen,"26027 Male (ITM3), day 15",17.15 mg/dL
same,Creatine,"26027 Male (ITM3), day 15",0.512 mg/dL
same,Erythrocytes,"26027 Male (ITM3), day 15",4.77e+06 µL⁻¹
same,Glutamate Pyruvate Transaminase,"26027 Male (ITM3), day 15",27.1 U/L
same,Granulocytes (%),"26027 Male (ITM3), day 15",32.6%
same,Granulocytes (x 103/ul),"26027 Male (ITM3), day 15",4 x 103/ul
same,Hematocrit,"26027 Male (ITM3), day 15",40.6%
same,Hemoglobin,"26027 Male (ITM3), day 15",14.5 g/dL
same,Leucocytes,"26027 Male (ITM3), day 15",12200 µL⁻¹
same,Lymphocytes (%),"26027 Male (ITM3), day 15",63%
same,Lymphocytes (x 103/ul),"26027 Male (ITM3), day 15",7.7 x 103/ul
same,Mean Corpuscular Hemoglobin,"26027 Male (ITM3), day 15",30.4 pg
same,Mean Corpuscular Volume,"26027 Male (ITM3), day 15",85 fL
same,Mean Hemoglobin Content,"26027 Male (ITM3), day 15",35.8 g/dL
same,Monocytes (%),"26027 Male (ITM3), day 15",4.4%
same,Monocytes (x 103/ul),"26027 Male (ITM3), day 15",0.5 x 103/ul
same,Platelets,"26027 Male (ITM3), day 15",245000 µL⁻¹
same,Red Cell Distribution Width,"26027 Male (ITM3), day 15",18.5%
same,Reticulocytes,"26027 Male (ITM3), day 15",3.1%
